For the experiment, the system named is Plasmopara viticola. The experiment is described as follows: Activity against downy mildew of grapes caused by Plasmopara viticola (protective, potted vines). It is filed as in vivo. The note with it: individual active compound. As to the method:
The active compounds, separately or together, were formulated as 10% emulsion in a mixture of 63% by weight of cyclohexanone and 27% by weight of emulsifier, and diluted with water to the desired concentration.
Evaluation was carried out by determining the infected leaf areas in percent. These percentages were converted into efficacies. The efficacy (w) was calculated as follows using Abbot's formula: w=(1−α)·100/β • α corresponds to the fungal infection of the treated plants in % and • β corresponds to the fungal infection of the untreated (control) plants in %
An efficacy of 0 means that the infection level of the treated plants corresponds to that of the untreated control plants; an efficacy of 100 means that the treated plants were not infected.
The expected efficacies of the mixtures of the active compounds were determined using Colby's formula [R. S. Colby, Weeds 15, 20-22 (1967)] and compared with the observed efficacies. Colby Formula: E=x+y−x·y/100 • E expected efficacy, expressed in % of the untreated control, when using the mixture of the active compounds A and B at the concentrations a and b • x efficacy, expressed in % of the untreated control, when using the active compound A at a concentration a • y efficacy, expressed in % of the untreated control, when using the active compound B at a concentration b
Leaves of potted vines of the cultivar “Müller-Thurgau” were sprayed to run off point with an aqueous preparation of active compound which had been prepared from a stock solution comprising 10% of active compound, 85% of cyclohexanone and 5% of emulsifier. The next day, the undersides of the leaves were inoculated with an aqueous zoospore suspension of Plasmopara viticola. The vines were then initially placed at 24° C. in a chamber saturated with water vapor for 48 hours and then for 5 days in a greenhouse at 20-30° C. After this period of time, the plants were once more placed into a moist chamber for 16 hours to promote sporangiophore eruption. The extent of the development of the disease on the undersides of the leaves was then determined visually.

In the case of `Cc1ccc(-c2c(Cl)nc(C#N)n2S(=O)(=O)N(C)C)cc1` [IIa, cyazofamid], the “Efficacy in % of the untreated control” value runs as follows: (0.25 ppm in the spray liquor, vines Müller-Thurgau) 14%; (1 ppm in the spray liquor) 57%; (4 ppm in the spray liquor) 71%.

These data come from patent US7368414B2, “Fungicidal mixtures” (BASF Aktiengesellschaft, priority 2000, dated 2008).
